Assay results reported in patent publication US5157052A, “Method for inhibiting IgE production” (priority 1990, dated 1992).

Assays:
Assay type in all cases: in vivo, mouse (Balb/c female)
MHC Class I = test: Splenocyte cell surface density/distribution (FACS): MHC Class I
Protocol: One group of 4 unstimulated Balb/c female mice is injected with PBS (Group A). Another (Group B) is injected with 20 μg (±) methyl 11α,16-dihydroxy-16-methyl-9-oxoprosta-5Z,13E-dien-1-oate as in Example 13. […] A 3 cm incision is made with a scalpel above the left hip, and the spleen is cut free from adjoining tissue and placed in a 100 mn plastic culture dish containing 10 ml PBS. The splenic cells are then made into a suspension, by rubbing the spleens between the rough, frosted ends of microscope slides repeatedly until the only remaining particulate matter is connective tissue. Cells are transferred to a 15 ml conical polystyrene tube and centrifuged in a centrifuge at 1200 rpm for 5 minutes. The supernatant is discarded by aspiration and the cell pellet is resuspended in 10 ml PBS, then centrifuged at 1200 rpm for 5 minutes. The supernatant is aspirated and the cell pellet is resuspended in 15 mM Tris, 140 mM Ammonium Chloride, to lyse red blood cells. After incubating at room temperature for 10 minutes the cell suspension is centrifuged at 1200 rpm for 10 minutes. The supernatant is discarded and the cell pellet is resuspended in 10 ml FACS Buffer (PBS containing 0.1% BSA and 0.1% Sodium Azide). The cell suspension is filtered through sterile glass wool plugged in the top of a pasteur pipet. Cells in the flow through are counted using a hemacytometer, then the cell suspension is centrifuged at 1200 rpm for 5 minutes. The supernatant is discarded and the cell pellet is resuspended in a volume of FACS Buffer that will yield 4×10^7 cells/ml. 10 μl (4×10^5 cells) is added to each well of a 96-well V-bottom plate. 25 μl of diluted monoclonal antibody directed against splenocyte cell surface proteins is added to each well: Major Histocompatability Complex (MHC) Class II (M5114, ATCC, Rockville Md.), MHC Class I (M1/42, ATCC), Anti-IgD (JA12.5, ATCC, Rockville, Md.), Thymocyte (Thy)-1 (JIJ, ATCC), B220 (14.8, ATCC), Kappa light chain (187, ATCC), IL-2 Receptor (7D4, ATCC), Lyt-1 (7.313, ATCC) and CD23 (biotinylated B3B4) and incubated on ice for 30 minutes. 100 μl 10% BSA 0.1% sodium azide is added to each well, then the plates are centrifuged at 1200 rpm for 10 minutes. The liquid is removed by aspiration and the cell pellets are resuspended in 100 μl FACS Buffer, and centrifuged at 1200 rpm for 5 minutes. […] Samples are transferred to individual tubes and 10,000 cells are analyzed. Using the Lysis software (Becton Dickinson, Mountain View, Calif.) the mean channel log fluorescence and percent positive cells are determined for the entire cell population. […]

[1] = system: leukocyte membrane proteins; test: Cell surface density or distribution of leukocyte membrane proteins, overall
IgG1 = test: Serum IgG1 in anti-IgD stimulated mice (two site sandwich ELISA, Assay B)

CCCCC(C)(O)C/C=C/[C@H]1[C@H](O)CC(=O)[C@@H]1C/C=C\CCCC(=O)OC (mixture of isomers) [(±) methyl 11α,16-dihydroxy-16-methyl-9-oxoprosta-5Z,13E-dien-1-oate]
Percentage Positive Cells (MHC Class I; anti-IgD stimulated mice, 20 μg days 3 and 4, day 7 (PBS 48.5)): 59.4 ± 5.4% | Mean Channel Log Fluorescence (MHC Class I; anti-IgD stimulated mice, 20 μg days 3 and 4, day 7 (PBS 113)): 121 ± 15 | Percentage Positive Cells (MHC Class I; unstimulated mice, 20 μg (PBS 57.8)): 79 ± 16% | Mean Channel Log Fluorescence (MHC Class I; unstimulated mice, 20 μg (PBS 112)): 113 ± 2 | cell surface density and distribution ([1]; anti-IgD stimulated mice, 20 μg days 3 and 4, day 7): identical cell surface density and distribution as the PBS treated group | cell surface density and distribution ([1]; unstimulated mice, 20 μg): does not effect basal cell surface density or distribution of leukocyte membrane proteins | IgG1 ± SD (IgG1; 2 μg IP days 3 and 4, day 7 (control 4808)): 3220 ± 985 µg/mL | IgG1 ± SD (IgG1; 2 μg IP days 3 and 4, day 8 (control 13818)): 12947 ± 2195 µg/mL | IgG1 ± SD (IgG1; 2 μg IP days 3 and 4, day 9 (control 17700)): 19938 ± 3279 µg/mL | IgG1 ± SD (IgG1; 2 μg IP days 3 and 4, day 11 (control 17100)): 17589 ± 1923 µg/mL | IgG1 ± SD (IgG1; 2 μg IP days 3 and 4, day -1 baseline before treatment): 215 ± 124 µg/mL | IgG1 ± SD (IgG1; 5 μg IP days 3 and 4, day 7): 6902 ± 3604 µg/mL | IgG1 ± SD (IgG1; 5 μg IP days 3 and 4, day 8): 18202 ± 5327 µg/mL | IgG1 ± SD (IgG1; 5 μg IP days 3 and 4, day 9): 27069 ± 3257 µg/mL | IgG1 ± SD (IgG1; 5 μg IP days 3 and 4, day 11): 23205 ± 6506 µg/mL | IgG1 ± SD (IgG1; 5 μg IP days 3 and 4, day -1 baseline before treatment): 248 ± 189 µg/mL | IgG1 ± SD (IgG1; 10 μg IP days 3 and 4, day 7): 6952 ± 3410 µg/mL | IgG1 ± SD (IgG1; 10 μg IP days 3 and 4, day 8): 17649 ± 3158 µg/mL | IgG1 ± SD (IgG1; 10 μg IP days 3 and 4, day 9): 26978 ± 11752 µg/mL | IgG1 ± SD (IgG1; 10 μg IP days 3 and 4, day 11): 26361 ± 6660 µg/mL | IgG1 ± SD (IgG1; 10 μg IP days 3 and 4, day -1 baseline before treatment): 166 ± 14 µg/mL | IgG1 ± SD (IgG1; 20 μg IP days 3 and 4, day 7): 6816 ± 3349 µg/mL | IgG1 ± SD (IgG1; 20 μg IP days 3 and 4, day 8): 16838 ± 4174 µg/mL | IgG1 ± SD (IgG1; 20 μg IP days 3 and 4, day 9): 23900 ± 11791 µg/mL | IgG1 ± SD (IgG1; 20 μg IP days 3 and 4, day 11): 24998 ± 7169 µg/mL | IgG1 ± SD (IgG1; 20 μg IP days 3 and 4, day -1 baseline before treatment): 255 ± 66 µg/mL | IgG1 ± SD (IgG1; 40 μg IP days 3 and 4, day 7): 5168 ± 2391 µg/mL | IgG1 ± SD (IgG1; 40 μg IP days 3 and 4, day 9): 24337 ± 4729 µg/mL | IgG1 ± SD (IgG1; 40 μg IP days 3 and 4, day 11): 25930 ± 4376 µg/mL
